Columns and labels:
[1] = system: CAR T cells cocultured with fresh Eμ-myc cells; assay: Cytokine secretion assay (Ella automated ELISA) with CAR T cells isolated from initial coculture; type: cell-based, mouse; conditions: for secretion of effector cytokine IFN-γ by CAR T cells / secretion of effector cytokine TNF-α by CAR T cells: CAR T cells isolated after 48 h coculture with Eμ-myc cells with NCX-4016 (100 PM) or PNT (50 μM), supernatants at 24 h
Description: (§1) CAR T cell isolation from initial coculture for subsequent downstream assays: 1×10^6 CAR T cells and 1×10^6 Eμ-myc-GFP-FFL cells were cocultured in the absence or presence of 0.25×10^6 macrophages in a 6-well plate in 6 ml of media for 48 h. After initial coculture, cells were harvested, and T cells were isolated using Mouse T Cell Isolation Kit ([…] Technologies). […] Percentage of CAR-expressing T cells was determined with flow cytometry and were subsequently used for downstream assays.
Cytokine secretion assay: 2×10^4 Eμ-myc cells were cocultured with 2×10^4 CAR T cells in a 96-well plate in a total volume of 100 μl of media. Supernatants were collected and analyzed for IFN-γ and TNF-α secretion using Ella automated immunoassay system (Proteinsimple Bio-techne) according to manufacturer's instructions.

[2] = system: CAR T cells cocultured with Eμ-myc cells with or without macrophages (imMac); assay: Expansion assay of mCherry+ CAR T cells (IncuCyte live cell analysis) in cocultures; type: cell-based, mouse; conditions: for CAR T cell expansion: CAR T cells cocultured with Eμ-myc cells without macrophages, agent present; for CAR T cell expansion / CAR T cell expansion in cocultures with imMac: over 48 h
Description: Macrophage development and polarization: BMDMs were generated from bone marrow cells harvested from femurs and tibias of WT or iNOS^−/− mice. […] On day 3, 10 ml of fresh medium with 20 ng/ml M-CSF was added. On day 5, the culture medium was entirely discarded and replaced by 15 ml of fresh medium with 20 ng/ml M-CSF. On day 6, BMDMs were activated for 24 h with 20 ng/ml of IL-4 and IL-10 (Peprotech) to develop imMac or cultured in media only to use as unMac. M-CSF (20 ng/ml) was added during activation with cytokines. On day 7, adherent cells were harvested by gentle scraping and used for in vitro experiments.
Expansion assay: The expansion of mCherry^+ CAR T cells was determined by an IncuCyte S3 live cell analysis system (Essen Bioscience). 2×10^4 Eμ-myc cells and 2×10^4 CAR T cells were cocultured in the absence or presence of 0.5×10^4 macrophages (CAR T:Eμ-myc cell:Macrophage=1:1:0.25, unless otherwise indicated in the figures) in a 96-well black-walled clear bottom plate in 120 μl of media. Cell images were captured at 4× magnification. The expansion index was calculated by dividing the total integrated red intensity (RCU×m^2/mm^2) at each time point by the first time point.
Immunoregulatory actions of macrophages on CAR T cells: To explore how M2-like macrophages may impact the cellular function of CAR T cells, the study employed a syngeneic coculture system (FIG. 3A). […] The BMDMs were either unpolarized (unMac) or induced to differentiate into M2-like macrophages by culturing with type 2 cytokines IL-4 and IL-10. […] The study next explored the impact of imMac on CAR T cell effector function. To exclude the direct contribution of macrophage effector activities in these functional assays, CAR T cells, Eμ-myc cells, and macrophages were first cocultured for 48 hours (FIG. 3G). Next, CAR T cells isolated from the cocultures were evaluated for their effector function against fresh Eμ-myc cells.

Eμ-myc cells = assay: Luciferase-based killing assay with CAR T cells isolated from initial coculture; type: cell-based, mouse; conditions: lysis at 24 h; for lysis of Eμ-myc cells by CAR T cells (ability to kill tumor cells): CAR T cells isolated after 48 h initial coculture with Eμ-myc cells with NCX-4016 (100 μM) or PNT (50 μM), no macrophages
Description: as §1
Luciferase-based killing assay: 2×10^4 Eμ-ALL-GFP-FFL cells were cocultured with CAR T cells at different effector-to-target ratios in a 96-well white-walled plate in 100 μl of media. Following incubation, 100 μl luciferase substrate reagent (ONE-Glo Luciferase assay system, Promega) was added to each well. Target cells alone were plated at the same cell density to determine maximum luciferase signals. Emitted luminescence was detected in the microplate reader (GloMax, Promega). Percent lysis was determined as (1−sample signal/maximum signal)×100.

iNOS = assay: Griess assay of NO levels in coculture supernatants; type: cell-based, mouse; conditions: L-NIL 50 μM at 48 h, anti-IFN-γ 10 μg/mL at 44 h
Description: Griess assay: 2×10^4 Eμ-myc cells and 2×10^4 CAR T cells were cocultured in the presence or absence of 0.5×10^4 macrophages in a 96-well plate in 120 μl of media. Coculture supernatants were harvested, and nitric oxide levels were measured using Griess reagent system (Promega) according to manufacturer's instructions. Absorbance was read at 560 nm using microplate reader (GloMax, Promega), and NO2 concentrations were determined by standard curve. Standard curve was prepared with diluting 0.1M sodium nitrite standard (provided in the kit) with the culture media used for experiments.

CAR T cells [3] = assay: Seahorse assay (ECAR, OCR) on CAR T cells from cocultures; type: cell-based, mouse; conditions: L-NIL 50 μM; coculture 48 h
Description: (§2) CAR T cell isolation from initial coculture for subsequent downstream assays: 1×10^6 CAR T cells and 1×10^6 Eμ-myc-GFP-FFL cells were cocultured in the absence or presence of 0.25×10^6 macrophages in a 6-well plate in 6 ml of media for 48 h. After initial coculture, cells were harvested, and T cells were isolated using Mouse T Cell Isolation Kit (STEMCELL Technologies). T cell purity was 100% as tested by flow cytometry. Percentage of CAR-expressing T cells was determined with flow cytometry and were subsequently used for downstream assays.
Seahorse assay: ECAR and OCR were measured using a Seahorse Extracellular Flux Analyzer (Agilent Technologies). XF96 microplates were coated with CellTak a day before analyses. To assay glycolytic function, T cells were resuspended in glucose-free XF medium supplied with 2 mM L-glutamine and 1 mM sodium pyruvate and seeded at 2×10^5 cells in 180 μl per well. Following incubation in a CO2-free incubator for 60 min at 37° C. for pH stabilization, ECAR was measured in response to 10 mM glucose, 1 μM oligomycin, and 50 mM 2-deoxyglucose. […] Following incubation in a CO2-free incubator for 60 min at 37° C. for pH stabilization, OCR was measured in response to 1 μM oligomycin, 1 μM FCCP, and 0.5 μM rotenone and antimycin.

Eμ-myc B cell tumors = assay: Survival of Eμ-myc tumor-bearing mice treated with CAR T cells and L-NIL; type: in vivo, mouse; conditions: combination of 1928z CAR T cells and L-NIL (i.p. once per day, 20 mg/kg) compared to 1928z CAR T cells alone; Eμ-myc tumors in peritoneal cavity
Description: Animal experiment: Six- to 10-week-old Rag1^+/+ mice of both sexes were intraperitoneally (i.p.) injected with 3×10^6 Eμ-myc-GFP-FFL cells to generate tumors localized in peritoneal cavity. Tumor engraftment was verified by bioluminescence imaging one day before CAR T cell transfer. Mice were randomized to different treatment groups without differences in pre-treatment tumor load. Seven days after tumor cell inoculation, mice were injected i.p. with 5×10^6 CAR T cells in 300 μl PBS. For survival experiments, L-NIL or PBS was administered i.p. once per day at 20 mg/kg body weight starting on the same day of tumor cell injection. […] Bioluminescence imaging was performed by IVIS Lumina III In Vivo Imaging System (PerkinElmer) with Living Image software (PerkinElmer).

CAR T cells [4] = assay: Global metabolomics on CAR T cells from cocultures; type: cell-based, mouse; conditions: L-NIL (50 PM); coculture 48 h
Description: as §2
Global metabolomic profiling and 13C6-labeled glucose tracing of CAR T cells, 1×10^6 T cells were resuspended in either RPMI-1640 medium (RPMI+10% heat-inactivated dialyzed FBS) or ^13C6-glucose substituted RPMI-1640 medium (glucose-free RPMI+10% heat-inactivated dialyzed FBS+11.1 mM ^13C6-glucose). After 4 h incubation, cells were collected, rapidly centrifuged (17,000×g, 10 sec, room temperature), and medium was removed. T cells were washed with 1 ml of ice-cold PBS, and metabolites were extracted with 300 μl of 80% methanol via incubation at −80° C. for 15 min. Samples were centrifuged (17,000×g, 20 min, 4° C.), and supernatants were transferred to an Eppendorf tube and dried in a vacuum evaporator overnight. The dried extracts were resuspended in 20 μl of aqueous 50% methanol, clarified by centrifugation (17,000×g, 20 min, room temperature), and analyzed by LC-HRMS.
LC-HRMS analysis was performed on a Vanquish UPLC coupled with a Q-Exactive HF mass spectrometer, employing the same conditions as the previously established methods 76. A ZIC-pHILIC LC column (4.6 mm inner diameter×150 mm length, […], MilliporeSigma, Burlington, MA) with a ZIC-pHILIC guard column (4.6 mm inner diameter×20 mm length, MilliporeSigma, Burlington, MA) was used for chromatographic separation at a column temperature of 30° C. […]

[5] = system: arginine metabolism by imMac; assay: Global metabolomics (LC-MS) of coculture supernatants; type: cell-based, mouse; conditions: L-NIL (50 PM)
Description: Metabolomics and ^13C6-labeled glucose tracing analyses: For global metabolomics analysis of cell-cultured medium, the cell-free medium was obtained by performing rapid centrifugation (17,000×g, 10 sec, room temperature) to collect the supernatant. The metabolites present in 20 μl of the cell-cultured medium were then extracted using 80 μl of ice-cold MeOH. Following a 30 min incubation on ice and subsequent centrifugation (17,000×g, 20 min, 4° C.), the supernatant was subjected to LC-HRMS analysis.
LC-HRMS analysis was performed on a Vanquish UPLC coupled with a Q-Exactive HF mass spectrometer, employing the same conditions as the previously established methods 76. A ZIC-pHILIC LC column (4.6 mm inner diameter×150 mm length, […], MilliporeSigma, Burlington, MA) with a ZIC-pHILIC guard column (4.6 mm inner diameter×20 mm length, MilliporeSigma, Burlington, MA) was used for chromatographic separation at a column temperature of 30° C. The mobile phases included 10 mM (NH4)2CO3 and 0.05% NH40H in H2O for mobile phase A, and […]. The LC gradient conditions were as follows: 0 to 13 min: a decreasing of 80% to 20% of mobile phase B, 13 to 15 min: 20% of mobile phase B. The ionization was set to negative mode, with the MS scan range set to 60 to 1000 m/z. The mass resolution was 70,000, and the AGC target was 1×106. The sample loading volume was 5 μl. The unlabeled or ^13C-labeled metabolite peaks were extracted using EL-Maven with a metabolite standard-based in-house library. For global metabolomic profiling, peak areas of metabolites were normalized by the median value of the total for identified metabolite peak areas in each sample. For the ^13C-labeled metabolite peaks, the natural isotope peak area was corrected using IsoCor (Version 2.2).

[6] = CAR T cells and Eμ-myc cells with imMac, agent present (L-NIL 50 μM; anti-IFN-γ 10 μg/mL; c-PTIO)
[7] = CAR T cells isolated after 48 h coculture with imMac with agent (L-NIL 50 μM, supernatants at 36 h; anti-IFN-γ 10 μg/mL, at 24 h)

SMILES: O=NOO [PNT, peroxynitrite]
- secretion of effector cytokine IFN-γ by CAR T cells [1]: diminished
- secretion of effector cytokine TNF-α by CAR T cells [1]: diminished
- CAR T cell expansion [2]: inhibition of CAR T cell expansion
- lysis of Eμ-myc cells by CAR T cells (ability to kill tumor cells) (Eμ-myc cells): diminished ability of CAR T cells to kill tumor cells

SMILES: N=C(NO)NCC[C@H](N)C(=O)O [nor-NOHA, N(omega)-hydroxy-nor-L-arginine]
- CAR T cell expansion in cocultures with imMac ([2]; physiological arginine concentration (150 μM), nor-NOHA (50 PM)): failed to rescue CAR T cell expansion
- CAR T cell expansion in cocultures with imMac ([2]; supraphysiological arginine concentration (1.15 mM) in culture media, nor-NOHA (50 PM)): did not restore CAR T cell expansion

SMILES: C=C(CC(=O)OCCCCCCCC)C(=O)O [4-OI, 4-octyl itaconate]
- CAR T cell expansion [2]: impaired CAR T cell expansion
- CAR T cell expansion ([2]; listed as 4OI): reduced CAR T cell expansion
- CAR T cell expansion ([2]; listed as 401): reduced CAR T cell expansion

SMILES: COC(=O)CCC(=O)C(=O)OC [DMKG]
- rescue of CAR T cell expansion by supplementation ([2]; FIG. 15, iNOS in imMac disrupts TCA cycle progression in CAR T cells): failed to rescue CAR T cell expansion

SMILES: CC1(C)N([O])C(c2ccc(C(=O)O)cc2)=[N+]([O-])C1(C)C [c-PTIO, carboxyl-PTIO]
- CAR T cell expansion in cocultures with imMac [2, 6]: partially rescued the expansion of CAR T cells

SMILES: CC(=N)NCCCC[C@H](N)C(=O)O.Cl [L-NIL, N^6-(1-Iminoethyl)-lysine, hydrochloride]
- production of NO in cocultures with imMac (iNOS): attenuated
- glycolytic metabolic capacity (ECAR) of CAR T cells from cocultures with imMac (CAR T cells [3]): preserved
- oxidative metabolic capacity (OCR) of CAR T cells from cocultures with imMac (CAR T cells [3]): preserved
- production of effector cytokine IFN-γ by CAR T cells [1, 7]: preserved
- production of effector cytokine TNF-α by CAR T cells [1, 7]: preserved
- survival of tumor-bearing mice (Eμ-myc B cell tumors): significantly improved survival
- CAR T cell expansion in cocultures with imMac [2, 6]: complete rescue of CAR T cell expansion
- lysis of Eμ-myc cells by CAR T cells (capacity to kill tumor cells) (Eμ-myc cells; CAR T cells isolated after 48 h initial coculture with Eμ-myc cells and imMac with agent (L-NIL 50 μM; anti-IFN-γ 10 μg/mL)): preserved the capacity of CAR T cells to kill tumor cells
- depletion of dihydroxyacetone phosphate (DHAP) in CAR T cells cocultured with imMac (CAR T cells [4]): reversal
- depletion of fructose 1,6-bisphosphate (F1,6BP) in CAR T cells cocultured with imMac (CAR T cells [4]): reversal
- depletion of glyceraldehyde 3-phosphate (G3P) in CAR T cells cocultured with imMac (CAR T cells [4]): reversal
- production of citrulline in cocultures with imMac ([5]; coculture supernatants): attenuated
- levels of arginine in coculture supernatants ([5]; cocultures with imMac): remained comparable
- levels of ornithine in coculture supernatants ([5]; cocultures with imMac): remained comparable

SMILES: NC(=O)NCCC[C@H](N)C(=O)O [citrulline]
- CAR T cell expansion [2]: did not impact the expansion of CAR T cells

SMILES: CC(=O)Oc1ccccc1C(=O)Oc1cccc(CO[N+](=O)[O-])c1 [NCX-4016]
- secretion of effector cytokine IFN-γ by CAR T cells [1]: diminished
- secretion of effector cytokine TNF-α by CAR T cells [1]: diminished
- CAR T cell expansion [2]: inhibition of CAR T cell expansion
- lysis of Eμ-myc cells by CAR T cells (ability to kill tumor cells) (Eμ-myc cells): diminished ability of CAR T cells to kill tumor cells

From patent US20240307335A1, “IRG Blockade to Armor CAR T Cells Against Myeloid Dysfunction” (ROSWELL PARK CANCER INSTITUTE CORPORATION, priority 2023, published 2024)
